Data on two compounds can be found in ChEMBL document CHEMBL1201862, “PubChem BioAssay data set” (2004).

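Grown in 96-well plates, cells were treated for 48 hours with each compound at five concentrations. Insufficient inhibition: endpoint recorded as highest concentration tested. Abbreviation: GI50, concentration required for 50% inhibition of growth.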 The source made the active and inactive calls. No stated cut-off is given here; in the data, active = GI50 up to about 1.1 µM and inactive = higher.

Test systems include M14; PC-3; RPMI-8226; ACHN; HCT-116; NCI-H23; BT-549; SR; SF-268; CCRF-CEM; K562; NCI-H460; HOP-62; MDA-MB-435; HL-60; IGROV-1; SK-MEL-5; UACC-62; MOLT-4; COLO 205.
Holding throughout (assay): NCI anticancer screen, dose series, 48 h

For `Cc1ccc(O)c(C2=NNC(c3cccc(Br)c3)C2)c1` (stereo not given), the GI50 is > 100 µM (inactive) with M14; 45.8 µM (inactive) with PC-3; 21.9 µM (inactive) in the experiment on RPMI-8226; 34.3 µM (inactive) in the experiment on ACHN; 40.4 µM (inactive) in the experiment on HCT-116; 76.6 µM (inactive) in the experiment on NCI-H23. Also, the GI50 was > 100 µM (inactive) with BT-549; 27.8 µM (inactive) in the experiment on SR; 71 µM (inactive) in the experiment on SF-268; 29.3 µM (inactive) in the experiment on CCRF-CEM; 38 µM (inactive) in the experiment on K562; 33.9 µM (inactive) in the experiment on NCI-H460. Further, the GI50 with HOP-62 was 86.3 µM (inactive); with MDA-MB-435 it was 19.8 µM (inactive); in the experiment with HL-60, 53.3 µM (inactive); in the experiment with IGROV-1, 13 µM (inactive); with SK-MEL-5, 71.3 µM (inactive); in the experiment with UACC-62 it was 35.7 µM (inactive). For the same compound, the figures for the GI50 in the experiment with MOLT-4 and with COLO 205 were 32.8 µM (inactive) and > 100 µM (inactive), respectively.

Take `Cc1nc2ccccc2c(=O)n1NC(=O)c1ccc(CS)cc1`: the GI50 in the experiment with M14 is 12.2 µM (inactive); in the experiment on PC-3, 1.74 µM (inactive); in the experiment on RPMI-8226, 11.1 µM (inactive); in the experiment on ACHN, 10.9 µM (inactive); in the experiment with HCT-116, 4.4 µM (inactive); in the experiment on NCI-H23, 15.6 µM (inactive). For the same compound, the GI50 with BT-549 was 13.7 µM (inactive); with SR, 2.97 µM (inactive); in the experiment with SF-268, 4.06 µM (inactive); in the experiment with CCRF-CEM it was 0.82 µM (active); in the experiment on K562, 6.21 µM (inactive); in the experiment on NCI-H460, 19 µM (inactive). Moreover, the GI50 was 18.8 µM (inactive) with HOP-62; 12.9 µM (inactive) in the experiment with MDA-MB-435; 2.7 µM (inactive) in the experiment on HL-60; 8.59 µM (inactive) with IGROV-1; 3.92 µM (inactive) in the experiment with SK-MEL-5; 6.58 µM (inactive) in the experiment on UACC-62. The GI50 was 1.02 µM (active) in the experiment on MOLT-4 and 15.2 µM (inactive) with COLO 205.
